Consider twelve compounds from BindingDB's records for aid1799747 (Csar, 2012).

This assay concerns the target T1, UDP-3-O-acyl-N-acetylglucosamine deacetylase (Aquifex aeolicus (strain VF5), UniProt O67648).
T1 sequence (O67648 whole entry): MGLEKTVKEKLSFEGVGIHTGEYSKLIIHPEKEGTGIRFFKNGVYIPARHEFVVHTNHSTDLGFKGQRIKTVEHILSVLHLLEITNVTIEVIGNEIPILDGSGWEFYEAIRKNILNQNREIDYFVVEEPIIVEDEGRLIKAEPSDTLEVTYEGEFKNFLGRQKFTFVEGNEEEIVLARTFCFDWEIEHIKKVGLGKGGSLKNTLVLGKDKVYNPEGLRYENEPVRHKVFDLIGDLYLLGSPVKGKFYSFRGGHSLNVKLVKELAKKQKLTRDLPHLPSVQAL
Briefly: OctetRed. The settings on record: pH 7; 25 °C.
Consider `NC[C@H](NC(=O)c1ccc(-c2ccccc2)cc1)C(=O)NO` [CS249], for which binding was put at a Kd of 145 nM. `NC[C@H](NC(=O)c1ccc(-c2ccc(Br)cc2)cc1)C(=O)NO` [CS250] returned a Kd of 29 nM. For the compound `NC[C@H](NC(=O)c1ccc(C#CC#Cc2ccccc2)cc1)C(=O)NO` [CS252], the affinity corresponds to a Ki of 10 nM. On to `C[C@@H](O)[C@H](NC(=O)c1ccc(C#CC#Cc2ccccc2)cc1)C(=O)NO` [CS257], for which the affinity corresponds to a Ki of 1 nM. Compared with the last compound, the Ki is about 10-fold lower. `C[C@@H](O)[C@H](NC(=O)c1ccc(-c2ccc(Br)cc2)cc1)C(=O)NO` [CS258]: the affinity corresponds to a Ki of 1 nM.

Compound `C[C@@H](O)[C@H](NC(=O)c1ccc(C#Cc2ccccc2)cc1)C(=O)NO` [CS259] showed a Ki of 1 nM. `C[C@@H](O)[C@H](NC(=O)c1ccc(-c2ccccc2)cc1)C(=O)NO` [CS263] registered an equilibrium dissociation constant (Kd) of 14 nM. This counts as double-digit nanomolar. In the case of `O=C(NO)[C@H]1COC(c2ccc(OC(F)(F)F)c(Cl)c2)=N1` [CS270], the Kd stood at 744 nM. On the same count and under the same terms, then `O=C(NO)[C@H]1COC(c2ccc(F)c(C(F)(F)F)c2)=N1` [CS271], with 443 nM. Consider `O=C(NO)[C@H]1COC(c2cc3cc(F)ccc3[nH]2)=N1` [CS272], for which the Kd is 772 nM. `CCCc1ccc(-c2ccc(C3=N[C@@H](C(=O)NO)CO3)cc2)cc1` [CS274]: the Kd was 415 nM. In the case of `O=C(NO)c1csc(-c2ccc(OC(F)(F)F)c(Cl)c2)n1` [CS275], binding was characterised by a dissociation constant (Kd) of 1820 nM.

A word on the Kd: it is the constant that tells how readily two partners part at equilibrium. Lower therefore signals tighter binding. What is called Ki is a measure of affinity in units of concentration, obtained from inhibition or displacement.
